Drawing on patent US20250136578A1 (Kolm Therapeutics Inc., priority 2023, published 2025), this text covers EC50 and IC50 for 17 molecules.

Usually IC50 stands for the point on the concentration scale where inhibition reaches its midpoint. Low readings indicate inhibition by little substance, high ones a need for much substance.

The target of the first assay is AR / CBP ternary complex (Homo sapiens, UniProt P10275+Q92793). Put plainly: Ternary complex formation assay (sandwich ELISA, AR capture, CBP antibody detection) in VCaP cell lysates. The format is cell-based. The settings on record: treated 1.5 hours, rabbit CBP or p300 antibody detection, average, read-out: Average Ternary Complex. How it is done: Black MaxiSorp plates: coat with 50 μL of mouse 1/50 diluted AR antibody (Monoclonal Antibody (AR 441 from Thermo Fisher); diluted in phosphate buffered saline (PBS). Spin the liquid to the bottom of the wells, if necessary. Incubate overnight at 4° C. Next day, wash 3 times with 200 μL of TBST. Block with 200 μL of blocking buffer (5% BSA in TBST) at room temperature for 2 hours (BSA: A4503 or A2153 from Sigma). Wash plates 3 times with TBST. Plates are ready for lysates Preparation of dimerizer treated lysates
Chain of AR / CBP ternary complex (P10275 whole entry): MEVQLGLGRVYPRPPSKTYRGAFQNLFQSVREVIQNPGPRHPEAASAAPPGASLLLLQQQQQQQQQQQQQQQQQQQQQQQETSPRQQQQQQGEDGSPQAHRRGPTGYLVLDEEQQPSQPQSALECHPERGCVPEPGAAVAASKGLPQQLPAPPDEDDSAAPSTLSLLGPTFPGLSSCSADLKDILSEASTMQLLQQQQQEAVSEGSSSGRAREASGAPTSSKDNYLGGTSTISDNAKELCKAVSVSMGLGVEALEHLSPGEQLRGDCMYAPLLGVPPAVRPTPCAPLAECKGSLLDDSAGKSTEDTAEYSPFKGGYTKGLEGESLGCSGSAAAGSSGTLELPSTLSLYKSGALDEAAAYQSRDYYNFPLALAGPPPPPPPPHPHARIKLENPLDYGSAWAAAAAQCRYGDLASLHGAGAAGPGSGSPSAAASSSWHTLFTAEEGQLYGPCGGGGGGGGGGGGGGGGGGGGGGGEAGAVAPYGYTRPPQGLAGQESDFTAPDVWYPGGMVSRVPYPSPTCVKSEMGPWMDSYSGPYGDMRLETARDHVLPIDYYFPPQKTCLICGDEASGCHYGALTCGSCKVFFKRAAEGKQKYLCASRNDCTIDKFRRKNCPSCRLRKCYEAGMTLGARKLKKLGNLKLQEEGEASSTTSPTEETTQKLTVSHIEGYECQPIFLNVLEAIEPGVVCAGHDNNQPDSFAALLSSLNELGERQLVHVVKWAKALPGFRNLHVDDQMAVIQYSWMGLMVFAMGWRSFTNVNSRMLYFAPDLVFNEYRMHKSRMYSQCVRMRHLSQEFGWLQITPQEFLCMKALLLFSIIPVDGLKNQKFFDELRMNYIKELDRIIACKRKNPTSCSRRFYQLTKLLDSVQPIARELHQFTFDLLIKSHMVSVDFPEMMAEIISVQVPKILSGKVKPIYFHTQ
Chain of AR / CBP ternary complex (Q92793 2-2442): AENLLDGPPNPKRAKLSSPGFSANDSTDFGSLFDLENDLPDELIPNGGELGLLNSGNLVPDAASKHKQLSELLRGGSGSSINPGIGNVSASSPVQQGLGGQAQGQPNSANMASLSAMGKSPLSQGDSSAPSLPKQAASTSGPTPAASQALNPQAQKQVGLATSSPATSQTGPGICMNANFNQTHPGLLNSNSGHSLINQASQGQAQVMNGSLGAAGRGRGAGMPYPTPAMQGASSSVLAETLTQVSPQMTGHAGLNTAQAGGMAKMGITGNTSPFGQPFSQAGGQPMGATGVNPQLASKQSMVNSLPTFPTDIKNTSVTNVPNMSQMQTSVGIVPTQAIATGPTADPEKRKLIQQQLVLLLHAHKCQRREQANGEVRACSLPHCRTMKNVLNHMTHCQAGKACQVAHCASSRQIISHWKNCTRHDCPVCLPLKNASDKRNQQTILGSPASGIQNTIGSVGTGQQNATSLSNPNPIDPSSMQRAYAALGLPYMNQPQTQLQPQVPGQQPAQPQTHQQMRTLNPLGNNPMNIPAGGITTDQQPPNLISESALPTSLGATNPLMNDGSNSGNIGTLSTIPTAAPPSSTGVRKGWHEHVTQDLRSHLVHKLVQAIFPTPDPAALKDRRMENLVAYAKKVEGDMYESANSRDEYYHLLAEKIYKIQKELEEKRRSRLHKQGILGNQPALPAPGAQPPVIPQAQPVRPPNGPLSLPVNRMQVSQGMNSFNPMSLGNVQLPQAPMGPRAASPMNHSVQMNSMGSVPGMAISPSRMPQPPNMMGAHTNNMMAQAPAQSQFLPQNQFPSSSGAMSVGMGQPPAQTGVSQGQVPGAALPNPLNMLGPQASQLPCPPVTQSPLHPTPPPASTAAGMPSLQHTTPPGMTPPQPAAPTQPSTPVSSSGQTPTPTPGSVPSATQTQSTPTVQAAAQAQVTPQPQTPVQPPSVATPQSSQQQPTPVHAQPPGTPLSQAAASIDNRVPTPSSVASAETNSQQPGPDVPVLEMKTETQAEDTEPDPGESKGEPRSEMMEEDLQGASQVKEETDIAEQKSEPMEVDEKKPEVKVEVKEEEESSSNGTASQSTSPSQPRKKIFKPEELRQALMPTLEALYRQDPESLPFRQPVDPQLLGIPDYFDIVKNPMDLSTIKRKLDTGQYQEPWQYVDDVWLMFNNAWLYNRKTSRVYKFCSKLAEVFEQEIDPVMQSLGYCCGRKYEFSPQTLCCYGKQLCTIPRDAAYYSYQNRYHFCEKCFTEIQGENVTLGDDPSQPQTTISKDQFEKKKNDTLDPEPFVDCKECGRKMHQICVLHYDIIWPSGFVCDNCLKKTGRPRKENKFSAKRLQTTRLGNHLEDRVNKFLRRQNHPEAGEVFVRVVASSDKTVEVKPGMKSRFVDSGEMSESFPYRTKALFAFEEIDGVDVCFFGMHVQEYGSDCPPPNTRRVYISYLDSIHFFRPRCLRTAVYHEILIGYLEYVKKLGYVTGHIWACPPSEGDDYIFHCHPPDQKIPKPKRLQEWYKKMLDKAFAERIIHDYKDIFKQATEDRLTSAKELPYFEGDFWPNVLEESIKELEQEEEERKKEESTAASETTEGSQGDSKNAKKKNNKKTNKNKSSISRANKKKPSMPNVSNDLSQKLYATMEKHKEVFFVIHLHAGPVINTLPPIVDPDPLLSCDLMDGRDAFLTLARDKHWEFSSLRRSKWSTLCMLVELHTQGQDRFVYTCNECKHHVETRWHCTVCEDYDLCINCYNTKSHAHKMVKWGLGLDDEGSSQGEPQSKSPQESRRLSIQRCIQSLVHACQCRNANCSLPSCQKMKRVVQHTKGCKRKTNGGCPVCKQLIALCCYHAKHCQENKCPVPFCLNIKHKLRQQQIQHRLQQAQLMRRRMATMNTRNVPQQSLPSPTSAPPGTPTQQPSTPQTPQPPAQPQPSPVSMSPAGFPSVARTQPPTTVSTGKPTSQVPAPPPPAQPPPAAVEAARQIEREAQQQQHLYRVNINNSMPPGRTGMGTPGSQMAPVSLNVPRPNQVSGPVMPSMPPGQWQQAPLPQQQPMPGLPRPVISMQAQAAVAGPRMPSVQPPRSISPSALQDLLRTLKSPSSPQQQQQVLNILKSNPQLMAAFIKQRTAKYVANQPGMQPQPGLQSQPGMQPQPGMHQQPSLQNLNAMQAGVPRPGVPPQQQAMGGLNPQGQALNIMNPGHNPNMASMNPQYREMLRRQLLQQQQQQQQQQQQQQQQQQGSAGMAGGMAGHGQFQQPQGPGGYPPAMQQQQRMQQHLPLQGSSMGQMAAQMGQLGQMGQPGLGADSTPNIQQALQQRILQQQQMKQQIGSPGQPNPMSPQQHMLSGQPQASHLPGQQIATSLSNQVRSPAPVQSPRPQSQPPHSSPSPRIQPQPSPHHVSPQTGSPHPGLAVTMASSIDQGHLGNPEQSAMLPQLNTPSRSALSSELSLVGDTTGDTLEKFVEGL
Culture cells in 96 wells at 50K VCaP cells/well for at least 3 days. Plate in 5% Omega charcoal stripped FBS in total volume of 200 uL. Treat with bifunctional for 1.5 hours by adding 1 μL of 200× stock in DMSO. Aspirate media/compound. Add and pipet-to-mix 70 μL of 1× AlphaLisa Lysis Buffer to each well (Perkin Elmer, AlphaLISA SureFire Ultra, diluted in water). Pipet up and down when adding lysis buffer to disrupt cells. Let lysis proceed for 30 min at 4° C.
Incubate for 1 hour at room temperature. Flick out the lysates. Wash 3 times with TBST. Add 75 μL of rabbit CBP or p300 antibody to each well (diluted 1:5000 in blocking buffer (5% BSA in TBST). CBP antibody: (D6C5) Rabbit mAb #7389; p300 antibody: (D8Z4E) Rabbit mAb #86377. Incubate overnight at 4° C. Wash 3 times with 300 uL TBST, each time on shaker for 5-10 min. Prepare goat anti-rabbit antibody conjugated to HRP (1/100K dilution in blocking buffer) Invitrogen Catalog number: 32260. Add 75 μL of HRP-conjugated goat anti-rabbit antibody. Incubate at room temperature for 1 hour. Flick out the HRP-antibody mixture. Wash 7-8 times with TBST, each time on shaker for 10 min. Later washes try to overflow the wells so that no residual HRP remains bound to the sides of the well. Prepare and add 75 uL/well of QuantaRed Enhance Chemifluorescent HRP Substrate solution. Immediately read fluorescence on BMG ClarioStar (ex: 570/em 585), and repeat the read in 5 minutes and 15 minutes.
A general note: In an ELISA, binding on a coated surface is turned into a signal by an enzyme label.
Take `CC(=O)N1CCc2c(c(-c3cccc4cc(-c5cnn(CCC6CCN(c7ccc(C(=O)N[C@H]8CC[C@H](Oc9ccc(C#N)c(Cl)c9)CC8)nn7)CC6)c5)ncc34)nn2C2CCOCC2)C1` [Compound 24, 6-[4-[2-[4-[8-(5-acetyl-1-tetrahydropyran-4-yl-6,7-dihydro-4H-pyrazolo[4,3-c]pyridin-3-yl)-3-isoquinolyl]pyrazol-1-yl]ethyl]-1-piperidyl]-N-[4-(3-chloro-4-cyano-phenoxy)cyclohexyl]pyridazine-3-carboxamide]: the EC50 was under 1 nM. Still for that read-out and setting: the value for `CC(=O)N1CCc2c(c(N3CCCc4cc(-c5ccn(C)n5)c(C(F)F)cc43)nn2C2CCC3(CC2)CC(Oc2ccc(C(=O)N[C@H]4CC[C@H](Oc5ccc(C#N)c(Cl)c5)CC4)nn2)C3)C1` (some centres unmarked) [Compound 275] was under 1 nM. Regarding `CC(=O)N1CCc2c(c(N3CCCc4cc(-c5cnn(C)c5)c(C(F)F)cc43)nn2[C@H]2CC[C@]3(CCCN(c4ccc(C(=O)N[C@H]5CC[C@H](Oc6ccc(C#N)c(Cl)c6)CC5)nn4)C3)CC2)C1` [Compound 266], the EC50 is over 100 nM. On to `CC(=O)N1CCc2c(c(N3CCCc4cc(-c5cnn(C)c5)c(C)cc43)nn2C2CCN(CC3CCN(c4ccc(C(=O)N[C@H]5CC[C@H](Oc6ccc(C#N)c(C(F)(F)F)c6)CC5)nn4)CC3(C)C)CC2)C1` (some centres unmarked) [Compound 294], for which the EC50 is under 1 nM. Regarding `CC(=O)N1CCc2c(c(N3CCCc4cc(-c5ccc(N6CCC(N7CCN(c8ccc(C(=O)N[C@H]9CC[C@H](Oc%10ccc(C#N)c(Cl)c%10)CC9)nn8)CC7)CC6)nc5)c(C(F)F)cc43)nn2C2CCOCC2)C1` [Compound 215], the EC50 was under 1 nM. Still for that read-out and setting: the result for `CC(=O)N1CCc2c(c(N3CCCc4cc(-c5cnn(C)c5)c(C(F)F)cc43)nn2[C@H]2CC[C@@]3(CCN(c4ccc(C(=O)N[C@H]5CC[C@H](Oc6ccc(C#N)c(Cl)c6)CC5)nn4)C3)CC2)C1` [Compound 265, 6-[8-[5-acetyl-3-[7-(difluoromethyl)-6-(1-methylpyrazol-4-yl)-3,4-dihydro-2H-quinolin-1-yl]-6,7-dihydro-4H-pyrazolo[4,3-c]pyridin-1-yl]-2-azaspiro[4.5]decan-2-yl]-N-[4-(3-chloro-4-cyano-phenoxy)cyclohexyl]pyridazine-3-carboxamide] reads under 1 nM; that for `CC(=O)N1CCc2c(c(N3CCCc4cc(-c5cnn(C)c5)ccc43)nn2C2CCN(CC3CCN(c4ncc(C(=O)N[C@H]5CC[C@H](Oc6ccc(C#N)c(Cl)c6)CC5)cn4)CC3)CC2)C1` [Compound 11, 2-[4-[[4-[5-acetyl-3-[6-(1-methylpyrazol-4-yl)-3,4-dihydro-2H-quinolin-1-yl]-6,7-dihydro-4H-pyrazolo[4,3-c]pyridin-1-yl]-1-piperidyl]methyl]-1-piperidyl]-N-[4-(3-chloro-4-cyano-phenoxy)cyclohexyl]pyrimidine-5-carboxamide], under 1 nM; that for `CC(=O)N1CCc2c(c(-c3cccc4cc(-c5cnn(C)c5)ncc34)nn2C2CCN(CC3CCN(c4ncc(C(=O)N[C@H]5CC[C@H](Oc6ccc(C#N)c(Cl)c6)CC5)cn4)CC3)CC2)C1` [Compound 6], under 1 nM. Same read-out and setting: the value for `CC(=O)N1CCc2c(c(N3CCCc4cc(C#N)c(C)cc43)nn2C2CCN(C[C@H]3[C@H](C)CN(c4ccc(C(=O)N[C@H]5CC[C@H](Oc6ccc(C#N)c(Cl)c6)CC5)nn4)C[C@@H]3C)CC2)C1` [Compound 285] was under 1 nM; that for `CC(=O)N1CCc2c(c(N3CCCc4cc(-c5cnn(C)c5)c(C(F)F)cc43)nn2C2CCN(C3CCC4(C3)CN(c3ccc(C(=O)N[C@H]5CC[C@H](Oc6ccc(C#N)c(Cl)c6)CC5)nn3)C4)CC2)C1` (some centres unmarked) [Compound 227, 6-[6-[4-[5-acetyl-3-[7-(difluoromethyl)-6-(1-methylpyrazol-4-yl)-3,4-dihydro-2H-quinolin-1-yl]-6,7-dihydro-4H-pyrazolo[4,3-c]pyridin-1-yl]-1-piperidyl]-2-azaspiro[3.4]octan-2-yl]-N-[4-(3-chloro-4-cyano-phenoxy)cyclohexyl]pyridazine-3-carboxamide] was under 1 nM. On the same count and under the same terms, the result for `CC(=O)N1CCc2c(c(N3CCCc4cc(-c5cscn5)c(C(F)F)cc43)nn2C2CCN([C@H]3CCCN(c4ccc(C(=O)N[C@H]5CC[C@H](Oc6ccc(C#N)c(Cl)c6)CC5)nn4)C3)CC2)C1` [Compound 260, 6-[(3S)-3-[4-[5-acetyl-3-[7-(difluoromethyl)-6-thiazol-4-yl-3,4-dihydro-2H-quinolin-1-yl]-6,7-dihydro-4H-pyrazolo[4,3-c]pyridin-1-yl]-1-piperidyl]-1-piperidyl]-N-[4-(3-chloro-4-cyano-phenoxy)cyclohexyl]pyridazine-3-carboxamide] reads 1 to 10 nM. As to `CC(=O)N1CCc2c(c(N3CCCc4cc(-c5cnn(C)c5)c(C(F)F)cc43)nn2C2CCN(CC3CCN(c4nnc(C(=O)N[C@H]5CC[C@H](Oc6ccc(C#N)c(Cl)c6)CC5)s4)CC3)CC2)C1` [Compound 225], the EC50 is under 1 nM. Same read-out and setting: the result for `CC(=O)N1CCc2c(c(N3CCCc4cc(-c5cnn(C)c5)c(C)cc43)nn2C2CCN(C3CCC4(CC3)CN(c3ccc(C(=O)N[C@H]5CC[C@H](Oc6ccc(C#N)c(Cl)c6)CC5)nn3)C4)CC2)C1` [Compound 295] reads under 1 nM.

In a further assay the test system is VCaP cells. Put plainly: VCaP growth inhibition assay (CTG). It counts as cell-based. To be noted: Homo sapiens, 216 h, 30 pM R1881, 9 days. As to the method:
VCaP cells (ATCC Cat #CRL-2876) are plated at 1×10^4 cells per well of a white plastic 96-well cluster plate (Thermo Scientific Nunc Cat #165306) in 100 uL phenol red-free DMEM (Gibco Cat #21063-029) media with 5% CSS (Omega Scientific Cat #FB-04). Cluster plates are returned to the incubator (37*C/5% CO2) for 72 hours prior to treatment. Just prior to treatment, 100 uL of phenol red-free DMEM/5% CSS and 60 pM R1881 (Sigma Cat #R0908-10 mg) was added to each well of the cluster plates (Final R1881 concentration=30 pM). Compounds (200X) were added to each well in a volume of 1 uL, with serial dilutions (1:5) from 20 uM to 2 pM (final concentrations in well are 100 nM to 10 fM). Cluster plates are returned to the incubator for 9 days.
After the 9-day treatment period, media was removed from the cluster plates by inversion and 100 uL room temperature CTG reagent (Promega Cat #G7573) is added to each well. The cluster plates are placed on a shaker and incubated at room temperature for 20 minutes. Following this shaking/incubation, cluster plates are read on a luminometer (BMG ClarioStar). IC50 values are obtained by graphing the RLU data vs. compound concentration with nonlinear regression 4-parameter logistic curves (GraphPad Prism).
Molecule `CC(=O)N1CCc2c(c(N3CCCc4cc(-c5cnn(C)c5)c(C(F)F)cc43)nn2[C@H]2CC[C@@H](N(C)C3CCN(c4ccc(C(=O)N[C@H]5CC[C@H](Oc6ccc(C#N)c(Cl)c6)CC5)nn4)CC3)CC2)C1` [Compound 189, 6-[4-[[4-[5-acetyl-3-[7-(difluoromethyl)-6-(1-methylpyrazol-4-yl)-3,4-dihydro-2H-quinolin-1-yl]-6,7-dihydro-4H-pyrazolo[4,3-c]pyridin-1-yl]cyclohexyl]-methyl-amino]-1-piperidyl]-N-[4-(3-chloro-4-cyano-phenoxy)cyclohexyl]pyridazine-3-carboxamide] came in with an IC50 of at most 0.1 nM. `CC(=O)N1CCc2c(c(N3CCCc4cc(-c5cnn(C)c5)c(C(F)F)cc43)nn2[C@H]2CC[C@H](N(C)C3CCN(c4ccc(C(=O)N[C@H]5CC[C@H](Oc6ccc(C#N)c(Cl)c6)CC5)nn4)CC3)CC2)C1` [Compound 187, 6-[4-[[4-[5-acetyl-3-[7-(difluoromethyl)-6-(1-methylpyrazol-4-yl)-3,4-dihydro-2H-quinolin-1-yl]-6,7-dihydro-4H-pyrazolo[4,3-c]pyridin-1-yl]cyclohexyl]-methyl-amino]-1-piperidyl]-N-[4-(3-chloro-4-cyano-phenoxy)cyclohexyl]pyridazine-3-carboxamide] displayed an IC50 of at most 0.1 nM. The same measure, in the same setting: the value for `CC(=O)N1CCc2c(c(-c3cccc4cc(-c5ccc(N6CCC7(CC6)CCN(c6ccc(C(=O)N[C@H]8CC[C@H](Oc9ccc(C#N)c(Cl)c9)CC8)nn6)CC7)nc5)ncc34)nn2C2CCOCC2)C1` [Compound 179, 6-[9-[5-[8-(5-acetyl-1-tetrahydropyran-4-yl-6,7-dihydro-4H-pyrazolo[4,3-c]pyridin-3-yl)-3-isoquinolyl]-2-pyridyl]-3,9-diazaspiro[5.5]undecan-3-yl]-N-[4-(3-chloro-4-cyano-phenoxy)cyclohexyl]pyridazine-3-carboxamide] was 0.1 to 1 nM; that for `CC(=O)N1CCc2c(c(N3CCCc4cc(-c5cnn(C)c5)c(C(F)F)cc43)nn2C2CCN(C3CCC4(CC3)CN(c3ccc(C(=O)N[C@H]5CC[C@H](Oc6ccc(C#N)c(Cl)c6)CC5)nn3)C4)CC2)C1` [Compound 185, 6-[7-[4-[5-acetyl-3-[7-(difluoromethyl)-6-(1-methylpyrazol-4-yl)-3,4-dihydro-2H-quinolin-1-yl]-6,7-dihydro-4H-pyrazolo[4,3-c]pyridin-1-yl]-1-piperidyl]-2-azaspiro[3.5]nonan-2-yl]-N-[4-(3-chloro-4-cyano-phenoxy)cyclohexyl]pyridazine-3-carboxamide] was at most 0.1 nM.
